Key:
Type in all cases: in vivo
Zea mays (ZEAMX) = assay: Post-emergence crop plant compatibility, greenhouse pot trial; details: 20 g/ha, in comparison to untreated controls
Protocol: Seeds of monocotyledonous and dicotyledonous weeds and crop plants are placed in sandy loam in plastic or organic planting pots, covered with soil and cultivated in a greenhouse under controlled growth conditions. 2 to 3 weeks after sowing, the trial plants are treated at the one-leaf stage. The compounds of the invention, formulated in the form of wettable powders (WP) or as emulsion concentrates (EC), are then sprayed onto the green parts of the plants as aqueous suspension or emulsion with addition of 0.5% additive at a water application rate equivalent to 600 l/ha. After about 3 weeks of keeping the trial plants in the greenhouse under optimum growth conditions, the effect of the preparations is rated visually in comparison to untreated controls. For example, 100% activity=the plants have died, 0% activity=like control plants.
The observed effects on selected crop plants are reported here in comparison to the untreated controls (values in %). The appendices “a”, “b” and “c” give differentiation by dosage used with otherwise the same useful plants tested.
As shown by results from Tables B1 to B19, inventive compounds of the general formula (I) in the case of post-emergence treatment have good herbicidal efficacy against harmful plants, for example Abutilon theophrasti (ABUTH), Alopecurus myosuroides (ALOMY), Amaranthus retroflexus (AMARE), Avena fatua (AVEFA), Digitaria sanguinalis (DIGSA), Echinochloa crus-galli (ECHCG), Bassia scoparia (KCHSC), Lolium rigidum (LOLRI), Matricaria inodora (MATIN), Pharbitis purpurea (PHBPU), Polygonum convolvulus (POLCO), Setaria viridis (SETVI), Veronica persica (VERPE) and Viola tricolor (VIOTR) at an application rate of 320 g of active substance or less per hectare, and good crop plant compatibility in the case of organisms such as Oryza sativa (ORYSA), Zea mays (ZEAMX), Brassica napus (BRSNW), Glycine max (GLXMA) and Triticum aestivum (TRZAS) at an application rate of 320 g or less per hectare.

Lolium rigidum (LOLRI) = assay: Post-emergence herbicidal action, greenhouse pot trial; details: visual rating after about 3 weeks; for pest or weed control at 320 g/ha: Lolium rigidum, 504 h, read-out: Post-emergence effect at 320 g/ha against LOLRI in %
How it was run: (§1)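 Using WP or EC formulations applied at the one-leaf stage, compounds were sprayed onto weeds at 320 g/ha or lower. Percent activity was estimated visually about three weeks later, with dead plants scored 100% and control-like plants 0%.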

Setaria viridis (SETVI) = assay: as above; details: 320 g/ha, visual rating after about 3 weeks; for pest or weed control at 320 g/ha: Setaria viridis, 504 h, read-out: Post-emergence effect at 320 g/ha against SETVI in %
How it was run: as §1

Viola tricolor (VIOTR) = assay: as above; details: for pest or weed control at 20 g/ha / pest or weed control at 80 g/ha / pest or weed control at 320 g/ha: Viola tricolor, 504 h, read-out: Post-emergence effect against VIOTR
How it was run: as §1

[1] = test system: Echinochloa crus-galli (ECHCG); assay: as above; details: visual rating after about 3 weeks; for pest or weed control at 320 g/ha: Echinochloa crus-galli, 504 h, read-out: Post-emergence effect at 320 g/ha against ECHCG in %
How it was run: as §1

[2] = test system: Alopecurus myosuroides (ALOMY); assay: as above; details: visual rating after about 3 weeks
How it was run: as §1

Avena fatua (AVEFA) = assay: as above; details: visual rating after about 3 weeks; for pest or weed control at 320 g/ha: Avena fatua, 504 h, read-out: Post-emergence effect at 320 g/ha against AVEFA in %
How it was run: as §1

[3] = test system: Digitaria sanguinalis (DIGSA); assay: as above; details: visual rating after about 3 weeks; for pest or weed control at 320 g/ha: Digitaria sanguinalis, 504 h, read-out: Post-emergence effect at 320 g/ha against DIGSA in %
How it was run: as §1

[4] = test system: Polygonum convolvulus (POLCO); assay: as above; details: visual rating after about 3 weeks; for pest or weed control at 80 g/ha / pest or weed control at 320 g/ha: Fallopia convolvulus, 504 h; for pest or weed control at 80 g/ha: read-out: Post-emergence effect at 80 g/ha against POLCO in %; for pest or weed control at 320 g/ha: read-out: Post-emergence effect at 320 g/ha against POLCO in %
How it was run: as §1

[5] = test system: Abutilon theophrasti (ABUTH); assay: as above; details: visual rating after about 3 weeks; for pest or weed control at 80 g/ha / pest or weed control at 320 g/ha: Abutilon theophrasti, 504 h; for pest or weed control at 80 g/ha: read-out: Post-emergence effect at 80 g/ha against ABUTH in %; for pest or weed control at 320 g/ha: read-out: Post-emergence effect at 320 g/ha against ABUTH in %
How it was run: as §1

[6] = test system: Amaranthus retroflexus (AMARE); assay: as above; details: visual rating after about 3 weeks; for pest or weed control at 80 g/ha / pest or weed control at 320 g/ha: Amaranthus retroflexus, 504 h; for pest or weed control at 80 g/ha: read-out: Post-emergence effect at 80 g/ha against AMARE in %; for pest or weed control at 320 g/ha: read-out: Post-emergence effect at 320 g/ha against AMARE in %
How it was run: as §1

[7] = test system: Pharbitis purpurea (PHBPU); assay: as above; details: visual rating after about 3 weeks; for pest or weed control at 320 g/ha: read-out: Post-emergence effect at 320 g/ha against PHBPU in %
How it was run: as §1

[8] = test system: Matricaria inodora (MATIN); assay: as above; details: visual rating after about 3 weeks; for pest or weed control at 80 g/ha / pest or weed control at 320 g/ha: Tripleurospermum inodorum, 504 h; for pest or weed control at 80 g/ha: read-out: Post-emergence effect at 80 g/ha against MATIN in %; for pest or weed control at 320 g/ha: read-out: Post-emergence effect at 320 g/ha against MATIN in %
How it was run: as §1

Bassia scoparia (KCHSC) = assay: as above; details: for pest or weed control at 80 g/ha / pest or weed control at 320 g/ha: Bassia scoparia, 504 h, read-out: Post-emergence effect against KCHSC
How it was run: as §1

Veronica persica (VERPE) = assay: as above; details: visual rating after about 3 weeks; for pest or weed control at 320 g/ha: Veronica persica, 504 h, read-out: Post-emergence effect at 320 g/ha against VERPE in %
How it was run: as §1

[9] = Ipomoea purpurea, 504 h, 320 g/ha

Row | Structure (SMILES) | Post-emergence effect at 320 g/ha against LOLRI in % (Lolium rigidum (LOLRI)) | Post-emergence effect against VIOTR (Viola tricolor (VIOTR); 320 g/ha) | Post-emergence effect at 80 g/ha against DIGSA in % [3] | pest or weed control at 320 g/ha (Bassia scoparia (KCHSC)) | pest or weed control at 320 g/ha (Veronica persica (VERPE)) | pest or weed control at 320 g/ha (Avena fatua (AVEFA); 320 g/ha) | pest or weed control at 320 g/ha (Setaria viridis (SETVI)) | pest or weed control at 20 g/ha (Viola tricolor (VIOTR)) | pest or weed control at 80 g/ha (Viola tricolor (VIOTR); 80 g/ha) | pest or weed control at 320 g/ha (Viola tricolor (VIOTR); 320 g/ha) | pest or weed control at 320 g/ha [1] | pest or weed control at 80 g/ha ([4]; 80 g/ha) | pest or weed control at 320 g/ha ([4]; 320 g/ha) | pest or weed control at 80 g/ha ([5]; 80 g/ha) | pest or weed control at 320 g/ha ([5]; 320 g/ha) | pest or weed control at 80 g/ha [6] | pest or weed control at 320 g/ha ([6]; 320 g/ha) | pest or weed control at 320 g/ha [7, 9] | pest or weed control at 80 g/ha ([8]; 80 g/ha) | pest or weed control at 320 g/ha ([8]; 320 g/ha) | further results
1 | COC(=O)CCOC(=O)C(Oc1nn(-c2ncccc2F)c(-c2ccc(F)nc2)c1Br)SC (single isomer, unassigned) [Example I-23] | 90% | 90% | 90% | – | – | – | – | – | – | – | – | – | – | – | – | – | – | – | – | – | Post-emergence effect against ZEAMX (crop plant compatibility) (Zea mays (ZEAMX)): 0%; Post-emergence effect at 320 g/ha against SETVI in % (Setaria viridis (SETVI)): 90%; Post-emergence effect against VIOTR (Viola tricolor (VIOTR); 80 g/ha): 80%; Post-emergence effect at 80 g/ha against ECHCG in % [1]: 90%; Post-emergence effect at 320 g/ha against ECHCG in % [1]: 90%; Post-emergence effect at 320 g/ha against ALOMY in % ([2]; 320 g/ha): 80%; Post-emergence effect at 320 g/ha against AVEFA in % (Avena fatua (AVEFA); 320 g/ha): 80%; Post-emergence effect at 320 g/ha against DIGSA in % [3]: 90%; Post-emergence effect at 80 g/ha against POLCO in % ([4]; 80 g/ha): 80%; Post-emergence effect at 320 g/ha against POLCO in % ([4]; 320 g/ha): 90%; Post-emergence effect at 80 g/ha against ABUTH in % ([5]; 80 g/ha): 80%; Post-emergence effect at 320 g/ha against ABUTH in % ([5]; 320 g/ha): 90%; Post-emergence effect at 320 g/ha against AMARE in % ([6]; 320 g/ha): 80%; Post-emergence effect at 80 g/ha against PHBPU in % ([7]; 80 g/ha): 80%; Post-emergence effect at 320 g/ha against PHBPU in % ([7]; 320 g/ha): 90%; Post-emergence effect at 80 g/ha against MATIN in % ([8]; 80 g/ha): 80%; Post-emergence effect at 320 g/ha against MATIN in % ([8]; 320 g/ha): 90%
2 | CCOC(=O)C(Oc1nn(-c2ccccc2F)c(-c2ccc(F)nc2)c1Br)SC (single isomer, unassigned) [Example I-40] | 90% | 80% | 90% | 90% | 80% | 90% | – | – | – | – | – | – | – | – | – | – | – | – | – | – | Post-emergence effect at 20 g/ha against LOLRI in % (Lolium rigidum (LOLRI); 20 g/ha): 80%; Post-emergence effect at 80 g/ha against LOLRI in % (Lolium rigidum (LOLRI); 80 g/ha): 80%; Post-emergence effect at 20 g/ha against KCHSC in % (Bassia scoparia (KCHSC); 20 g/ha, visual rating after about 3 weeks): 80%; pest or weed control at 80 g/ha (Bassia scoparia (KCHSC)): 90%; Post-emergence effect at 20 g/ha against ECHCG in % ([1]; 20 g/ha): 80%; Post-emergence effect at 80 g/ha against ECHCG in % [1]: 80%; Post-emergence effect at 320 g/ha against ECHCG in % [1]: 90%; Post-emergence effect at 20 g/ha against ALOMY in % ([2]; 20 g/ha): 80%; Post-emergence effect at 80 g/ha against ALOMY in % ([2]; 80 g/ha): 80%; Post-emergence effect at 320 g/ha against ALOMY in % ([2]; 320 g/ha): 80%; Post-emergence effect at 20 g/ha against VERPE in % (Veronica persica (VERPE); 20 g/ha): 80%; Post-emergence effect at 80 g/ha against VERPE in % (Veronica persica (VERPE)): 80%; Post-emergence effect at 20 g/ha against AVEFA in % (Avena fatua (AVEFA); 20 g/ha): 80%; Post-emergence effect at 80 g/ha against AVEFA in % (Avena fatua (AVEFA); 80 g/ha): 90%; Post-emergence action at 20 g/ha against DIGSA in % ([3]; 20 g/ha): 90%; Post-emergence effect at 320 g/ha against DIGSA in % [3]: 90%
3 | CCOC(=O)C(Oc1nn(-c2ncccc2F)c(-c2cncc(F)c2)c1C1CC1)SC (stereo not drawn) [Example I-41] | – | – | – | 90% | 80% | 100% | 90% | 90% | 90% | 90% | 90% | 80% | 90% | 90% | 90% | 90% | 90% | 80% | 80% | 90% | pest or weed control at 320 g/ha ([2]; Alopecurus myosuroides, 504 h, 320 g/ha, read-out: Post-emergence effect at 320 g/ha against ALOMY in %): 80%; Post-emergence action at 20 g/ha against ABUTH in % ([5]; 20 g/ha): 80%; Post-emergence effect at 20 g/ha against AMARE in % ([6]; 20 g/ha): 80%
4 | CSC(Oc1nn(-c2ncccc2F)c(-c2cncc(F)c2)c1Br)C(=O)O (stereo not drawn) [Example I-42] | – | – | 80% | 90% | 80% | 100% | 90% | 90% | 90% | 90% | 90% | 80% | 90% | 80% | 90% | 90% | 90% | 90% | 80% | 90% | pest or weed control at 320 g/ha (Lolium rigidum (LOLRI)): 90%; pest or weed control at 80 g/ha (Bassia scoparia (KCHSC)): 90%; pest or weed control at 320 g/ha [3]: 90%; Post-emergence effect at 20 g/ha against PHBPU in % ([7]; 20 g/ha): 80%; pest or weed control at 80 g/ha ([7]; Ipomoea purpurea, 504 h, 80 g/ha, read-out: Post-emergence effect at 80 g/ha against PHBPU in %): 80%
5 | COC(=O)C(Oc1nn(-c2ncccc2F)c(-c2cncc(F)c2)c1C1CC1)SC (stereo not drawn) [Example I-66] | – | – | – | 90% | 90% | 80% | 80% | 90% | 90% | 90% | 90% | 80% | 80% | 80% | 90% | 90% | 90% | 90% | 80% | 90% | pest or weed control at 320 g/ha (Lolium rigidum (LOLRI)): 90%; Post-emergence effect at 80 g/ha against VERPE in % (Veronica persica (VERPE)): 90%; pest or weed control at 320 g/ha [3]: 80%
